“Also recorded” adds a separate entry of the source.
Experiments:
[1] = molecular target: 5HT1D (Homo sapiens, UniProt P28221); experiment: PDSP off-target binding; details: ± SEM
[2] = molecular target: 5HT1E (Homo sapiens, UniProt P28566); experiment: PDSP off-target binding; details: ± SEM
[3] = molecular target: β3 (Homo sapiens, UniProt P13945); experiment: PDSP off-target binding; details: ± SEM
[4] = molecular target: TSPO (Rattus norvegicus, UniProt P16257); experiment: PDSP off-target binding; details: ± SEM
Chain of TSPO (P16257 whole entry): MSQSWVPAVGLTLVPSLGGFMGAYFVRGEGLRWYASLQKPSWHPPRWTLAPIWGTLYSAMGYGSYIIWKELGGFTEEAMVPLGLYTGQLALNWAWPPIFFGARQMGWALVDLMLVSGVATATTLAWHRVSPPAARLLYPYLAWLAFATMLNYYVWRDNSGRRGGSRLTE

[5] = molecular target: T1, hP2Y14R (Homo sapiens, UniProt Q15391); experiment: Competitive fluorescent binding assay in whole CHO-hP2Y14R cells, tracer 20, flow cytometry; details: read-out: Human P2Y14R binding affinity (IC50)
T1 construct: expressed in transfected cells; host or cells: CHO
T1 sequence (Q15391 1-338): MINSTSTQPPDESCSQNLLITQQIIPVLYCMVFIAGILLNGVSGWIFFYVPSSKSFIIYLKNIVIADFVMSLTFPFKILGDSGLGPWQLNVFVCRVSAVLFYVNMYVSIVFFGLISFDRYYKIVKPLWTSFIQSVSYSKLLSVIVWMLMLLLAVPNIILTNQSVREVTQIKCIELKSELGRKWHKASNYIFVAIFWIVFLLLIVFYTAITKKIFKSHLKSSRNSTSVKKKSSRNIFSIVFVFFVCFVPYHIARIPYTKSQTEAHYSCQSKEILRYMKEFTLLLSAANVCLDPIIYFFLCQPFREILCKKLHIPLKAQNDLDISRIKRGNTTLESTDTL

[6] = molecular target: DOR (Homo sapiens, UniProt P41143); experiment: PDSP off-target binding
Chain of DOR (P41143 whole entry): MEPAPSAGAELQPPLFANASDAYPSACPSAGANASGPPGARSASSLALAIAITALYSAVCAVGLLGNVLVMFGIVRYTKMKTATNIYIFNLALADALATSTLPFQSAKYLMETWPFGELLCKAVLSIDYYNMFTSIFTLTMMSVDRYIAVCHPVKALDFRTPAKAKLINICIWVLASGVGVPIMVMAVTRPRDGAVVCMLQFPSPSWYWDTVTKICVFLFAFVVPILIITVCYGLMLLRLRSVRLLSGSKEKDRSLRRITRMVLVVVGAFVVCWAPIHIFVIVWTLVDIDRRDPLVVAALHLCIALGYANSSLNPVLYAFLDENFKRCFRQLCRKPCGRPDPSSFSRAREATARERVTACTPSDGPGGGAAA

[7] = molecular target: T2, α2C (Homo sapiens, UniProt P18825); experiment: PDSP off-target binding; details: ± SEM
T2 sequence (P18825 1-462): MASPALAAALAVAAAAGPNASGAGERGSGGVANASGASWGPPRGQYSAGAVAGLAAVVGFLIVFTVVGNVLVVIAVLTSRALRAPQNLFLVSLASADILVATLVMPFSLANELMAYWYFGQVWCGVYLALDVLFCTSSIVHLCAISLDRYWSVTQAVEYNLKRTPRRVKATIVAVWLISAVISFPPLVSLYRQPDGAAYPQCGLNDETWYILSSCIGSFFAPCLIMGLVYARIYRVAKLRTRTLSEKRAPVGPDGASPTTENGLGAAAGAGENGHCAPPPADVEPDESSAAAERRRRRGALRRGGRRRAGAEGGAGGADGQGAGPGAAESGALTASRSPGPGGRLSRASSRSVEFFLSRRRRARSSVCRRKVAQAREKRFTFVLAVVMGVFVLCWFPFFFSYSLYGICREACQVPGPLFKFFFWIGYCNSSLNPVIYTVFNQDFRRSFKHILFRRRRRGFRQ

[8] = molecular target: T3, α2A (Homo sapiens, UniProt P08913); experiment: PDSP off-target binding
T3 sequence (P08913 1-465): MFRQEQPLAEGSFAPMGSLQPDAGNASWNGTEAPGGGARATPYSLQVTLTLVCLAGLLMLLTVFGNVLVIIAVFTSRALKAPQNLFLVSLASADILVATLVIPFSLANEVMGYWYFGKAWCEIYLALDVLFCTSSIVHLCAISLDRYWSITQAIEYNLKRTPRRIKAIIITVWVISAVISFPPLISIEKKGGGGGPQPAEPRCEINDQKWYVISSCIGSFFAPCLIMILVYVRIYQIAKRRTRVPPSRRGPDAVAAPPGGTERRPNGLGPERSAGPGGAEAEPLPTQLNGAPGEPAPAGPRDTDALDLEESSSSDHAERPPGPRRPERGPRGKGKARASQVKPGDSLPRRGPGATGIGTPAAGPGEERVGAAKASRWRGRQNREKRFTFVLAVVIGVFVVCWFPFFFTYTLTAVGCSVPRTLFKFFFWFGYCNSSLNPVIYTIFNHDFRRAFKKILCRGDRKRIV

[9] = molecular target: T4, α2B (Homo sapiens, UniProt P18089); experiment: PDSP off-target binding
T4 sequence (P18089 1-450): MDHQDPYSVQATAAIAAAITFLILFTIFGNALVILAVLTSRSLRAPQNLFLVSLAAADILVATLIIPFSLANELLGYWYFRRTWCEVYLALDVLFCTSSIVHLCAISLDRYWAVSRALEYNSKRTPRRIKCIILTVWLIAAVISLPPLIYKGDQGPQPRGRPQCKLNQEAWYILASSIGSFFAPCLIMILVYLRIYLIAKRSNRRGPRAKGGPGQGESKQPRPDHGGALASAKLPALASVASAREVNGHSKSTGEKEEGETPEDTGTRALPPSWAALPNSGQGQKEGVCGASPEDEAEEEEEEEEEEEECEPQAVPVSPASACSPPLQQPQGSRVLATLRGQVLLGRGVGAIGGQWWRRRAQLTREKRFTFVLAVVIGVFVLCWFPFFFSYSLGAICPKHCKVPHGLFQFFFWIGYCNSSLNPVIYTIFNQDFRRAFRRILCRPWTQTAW

[10] = tested on: CCI-induced mechano-allodynia; experiment: Chronic constriction injury (CCI) of the sciatic nerve, mechano-allodynia by von Frey filaments; type: in vivo, mouse
Description: Chronic constriction injury (CCI) to the sciatic nerve was performed using the Bennett model. […] Then the animals were placed on a sterile surgical field and the skin was wiped with topical antiseptic, Dermachlor solution (0.2% chlorhexidine gluconate). […] A small incision was created on the lateral side of the left hind limb parallel to the femur. The sciatic nerve was exposed and ligated on two sites about 1 mm apart above the trifurcation using silk sutures 6.0. The incision was closed with clips and lidocaine cream was applied.
Mice were acclimated to the testing mesh-rack for 30 min before behavioral measurements. All behavioral testing was performed in the morning. The baseline measurements were determined on day 0 before CCI procedure. On day 7 post-CCI, baseline behavior responses were assessed, beginning prior to drug administration. Following drug injection, the behaviors were evaluated at multiple time points. Mechano-allodynia was quantified according to the hind paw withdrawal response to von Frey filaments stimulation by the Dixon up-and-down method. […] In presence of a positive withdrawal response a lighter filament was applied. If a negative response occurred, a stronger filament was used. At least four readings are obtained after the first positive response and the pattern of response was converted to a 50% paw withdrawal threshold (PWT), using the method described by Chaplan et al., J. Neurosci.
Data are expressed as mean±SD and analyzed by two-tailed, two-way repeated measures ANOVA with Dunnett's post hoc comparisons to day 7 behavior. The percentage of reversal of peak CCI-induced pain afforded by each drug was calculated for each animal using their baseline and day 7 post CCI behavioral measures. % Reversal=(PWT(g)t−PWT(g)day7)/PWT(g)day0−PWT(g)day7)×100, where PWT(g)=paw withdrawal threshold, t=time after drug. […] All statistical analyses were performed using GraphPad Prism 8 (Graph Pad Inc., San Diego, Calif.). Significance was accepted at p<0.05.

[11] = molecular target: T5, mP2Y14R (Mus musculus, UniProt Q9ESG6)
T5 sequence (Q9ESG6 1-338): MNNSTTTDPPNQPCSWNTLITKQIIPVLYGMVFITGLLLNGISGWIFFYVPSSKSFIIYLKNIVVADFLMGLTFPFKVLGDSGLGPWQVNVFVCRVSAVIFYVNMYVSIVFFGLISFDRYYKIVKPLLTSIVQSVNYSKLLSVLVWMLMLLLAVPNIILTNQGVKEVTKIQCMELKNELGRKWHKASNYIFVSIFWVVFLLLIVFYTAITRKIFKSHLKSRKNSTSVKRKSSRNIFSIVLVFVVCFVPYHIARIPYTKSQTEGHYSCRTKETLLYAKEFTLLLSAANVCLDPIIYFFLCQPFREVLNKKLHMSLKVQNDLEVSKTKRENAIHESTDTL

[12] = 10 μmol/kg, i.p., day 7 post-CCI, n = 3

Chain of β3 (P13945 whole entry): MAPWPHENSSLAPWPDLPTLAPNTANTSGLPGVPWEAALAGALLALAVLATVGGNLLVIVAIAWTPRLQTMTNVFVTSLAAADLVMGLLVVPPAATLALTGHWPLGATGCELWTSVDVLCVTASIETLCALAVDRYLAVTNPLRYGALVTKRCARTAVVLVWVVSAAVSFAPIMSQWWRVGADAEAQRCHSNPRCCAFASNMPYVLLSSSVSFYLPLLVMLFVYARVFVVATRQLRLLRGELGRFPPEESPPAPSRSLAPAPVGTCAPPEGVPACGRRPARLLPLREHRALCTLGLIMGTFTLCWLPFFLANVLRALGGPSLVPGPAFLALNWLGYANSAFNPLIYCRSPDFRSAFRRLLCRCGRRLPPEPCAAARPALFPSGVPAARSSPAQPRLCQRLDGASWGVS
Chain of 5HT1E (P28566 whole entry, species assumed): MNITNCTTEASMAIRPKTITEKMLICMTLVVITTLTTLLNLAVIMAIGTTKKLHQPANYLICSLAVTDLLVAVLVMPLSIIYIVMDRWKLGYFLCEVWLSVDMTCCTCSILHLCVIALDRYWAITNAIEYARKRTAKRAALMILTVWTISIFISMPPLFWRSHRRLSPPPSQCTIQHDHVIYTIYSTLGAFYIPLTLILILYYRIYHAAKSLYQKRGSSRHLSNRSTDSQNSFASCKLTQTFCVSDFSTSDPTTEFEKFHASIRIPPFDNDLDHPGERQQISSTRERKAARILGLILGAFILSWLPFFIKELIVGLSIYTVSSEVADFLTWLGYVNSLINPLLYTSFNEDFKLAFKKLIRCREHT
Chain of 5HT1D (P28221 whole entry, species assumed): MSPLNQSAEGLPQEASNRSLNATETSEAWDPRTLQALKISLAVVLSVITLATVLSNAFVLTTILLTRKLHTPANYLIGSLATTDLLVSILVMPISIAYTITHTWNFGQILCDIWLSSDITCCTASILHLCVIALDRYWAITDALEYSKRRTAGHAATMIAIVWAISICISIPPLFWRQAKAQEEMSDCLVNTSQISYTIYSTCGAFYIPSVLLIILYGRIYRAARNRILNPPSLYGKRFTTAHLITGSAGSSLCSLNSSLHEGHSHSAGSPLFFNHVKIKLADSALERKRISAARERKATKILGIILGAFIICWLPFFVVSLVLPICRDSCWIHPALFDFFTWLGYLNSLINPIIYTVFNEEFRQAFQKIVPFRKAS

CC(=O)N1CCC(c2ccc(-c3cc(C(=O)O)cc4cc(-c5ccc(C(F)(F)F)cc5)ccc34)cc2)CC1 [Compound 4, 4-(4-(1-(Acetyl)piperidin-4-yl)phenyl)-7-(4-(trifluoromethyl)phenyl)-2-naphthoic acid]
Ki [1]: 1750 nM | Ki [2]: 3910 nM | Ki [3]: 860 nM | Ki [4]: 508 nM

O=C(O)c1cc(-c2ccc(C3CCNCC3)cc2)cc(-c2cn(-c3ccc(C(F)(F)F)cc3)nn2)c1 [Compound 7, 4′-(Piperidin-4-yl)-5-(1-(4-(trifluormethyl)phenyl)-1H-1,2,3-triazol-4-yl)-[1,1′-biphenyl]-3-carboxylic acid]
IC50 [5]: 664 ± 175 nM | Ki [6]: 3790 nM | Ki [7]: 2710 nM | Ki [8]: 959 nM | Ki [9]: 5330 nM | In vivo efficacy compared with a comparator compound ([10]; 10 μmol/kg i.p., 6 vs 7, 4 vs 1): no statistical difference; also recorded: similar | Effect at 0.5 h (% ± SD), percent inhibition of mechano-allodynia [10, 12]: 70.7 ± 16.5% | Effect at 1 h (% + SD), percent inhibition of mechano-allodynia [10, 12]: 86.8 ± 2.4% | Effect at 2 h (% ± SD), percent inhibition of mechano-allodynia [10, 12]: 71.4 ± 10.2% | Effect at 3 h (% ± SD), percent inhibition of mechano-allodynia [10, 12]: 55.1 ± 18.6% | Effect at 5 h (% ± SD), percent inhibition of mechano-allodynia [10, 12]: 6.7 ± 5.9% | Reversal of CCI-induced mechano-allodynia ([10]; 10 μmol/kg, i.p., ipsilateral hind paw, day 7 post-CCI): reversed the allodynia | mP2Y14R affinity compared to isomer 6 ([11]; 7 vs 6): nearly equipotent | IC50 ([11]; read-out: Mouse P2Y14R binding affinity (IC50), mP2Y14R in HEK293 cells, tracer 20): 246 ± 63 nM

Reference: patent US11708346B2, “Treatment and prevention of neuropathic pain with P2Y14 antagonists” (Saint Louis University, priority 2019, dated 2023)
